Series [1] relates to C. elegans. Briefly: Hatching inhibitor (FUdR) treatment of adult nematodes: hatching of laid eggs on culture plate and in capsule. It is filed as in vivo, Caenorhabditis elegans. As to the method: A dose of a chemical agent required to make all eggs laid by a generation treated with the chemical agent unable to hatch varies depending on, for example, the type, the developmental stage or the sex of the nematode, a type of the chemical agent, or a treatment (exposure) time. For example, in a case where an FUdR solution is added to the culture plate and a nematode which is an adult hermaphrodite of C. elegans prior to laying eggs is exposed to the FUdR solution for a day, a sterilization dose at which the hatching rate of the next generation becomes 0% is not less than 0.5 mg/mL. Exposure of the adult nematode prior to laying eggs to the chemical agent of a dose lower than the sterilization dose allows for making adjustment so that only a certain percentage of eggs hatch.
The nematodes were cultured on the plate to which E. coli had been applied, until the nematodes became adult nematodes (before start of egg laying) on the third day after hatching. FUdR solution was added to this nematode culture plate, and the nematodes were cultured for another day. The FUdR solution was prepared by dissolving 5 mg of FUdR powder in 10 mL of sterile ultrapure water and stirring.
Adult nematodes on the fourth day after hatching which had been exposed to a hatching inhibitor for one day were collected together with E. coli from the culture plate with use of the platinum wire picker. Then, the nematodes were dropped in the aqueous sol which was the same as that prepared in Example 1, so that a sterilized adult nematode sol was prepared. Next, a micropipette was used to suck out the nematode sol. The nematode sol was then dropped in a calcium lactate solution which filled a plastic dish, and immersed in the calcium lactate solution for approximately 5 minutes. The hatching inhibitor-treated nematode-encapsulated capsule in which the adult nematodes that had been exposed to the hatching inhibitor and E. coli that would be food were encapsulated. At the end, a sterilized-nematode-encapsulated capsule was taken out from the calcium lactate solution and an outer phase membrane of this capsule was washed with ultrapure water.
An image of a spherical capsule in which approximately 10 adult nematodes on the fourth day after hatching and having undergone a hatching inhibition treatment by exposure to FUdR were encapsulated was captured from above with use of a digital camera attached to a microscope and the spherical capsule was observed, every 24 hours (every day) from immediately after the production of the spherical capsule. […] After one day and also after two days, it was possible to observe a state in which the adult nematodes moved inside the capsule. […]

Series [2] concerns C. elegans. To be noted: in vivo. From the text: Next, the nematodes having been grown in the nematode-encapsulated capsule were taken out, and locomotion of the nematodes was observed. As in Example 4, a hatching inhibitor-treated nematode-encapsulated capsule obtained two days after production of the capsule was transferred to a plate A1 with a tweezer, and the capsule was picked a plurality of times with a sterile toothpick, so that the inside of the capsule was exposed.

Series [3] concerns C. elegans. Briefly: Chemotaxis assay to volatile substance on nematode trap plate A3, nematodes supplied from nematode-encapsulated capsule (Example 10). It is filed as in vivo, Caenorhabditis elegans. To be noted: capsule supply, mean of two assays, FIG. 19. As to the method: An assay for evaluating response of nematodes to a volatile substance was conducted with use of diacetyl (having a molarity of 11.5 M at 15° C.), which is a kind of volatile substance, and diluted solutions prepared by diluting the diacetyl by two different dilution factors of 10 and 10^5. Note that the assay method was a method using a nematode trap plate. […]
Next, several nematode-encapsulated capsules in which nematode eggs were encapsulated and grown to adult nematodes were each picked with a tip of a micropipette chip, so that an outer phase membrane was broken. […] Thereafter, the number of nematodes caught in the fall-in cavities was counted.
Assuming that the total number of nematodes caught in the two left fall-in cavities filled with the test solution was N1 and the total number of nematodes caught in the two right fall-in cavities filled with the control buffer solution was N2, a value obtained according to the following formula was defined as a chemotaxis index (C.I.). Then, the response was evaluated. […]

Series [4] relates to C. elegans. Briefly: Chemotaxis assay to volatile substance on plate A3, conventional nematode supply method (Comparative Example 2). The class given is in vivo, Caenorhabditis elegans. The note with it: mean of three assays, FIG. 20. As to the method: Assuming that the total number of nematodes caught in the two left fall-in cavities filled with the test solution was N1 and the total number of nematodes caught in the two right fall-in cavities filled with the control buffer solution was N2, a value obtained according to the following formula was defined as a chemotaxis index (C.I.). Then, the response was evaluated. Chemotaxis index (C. I.)=(N1−N2)/(N1+N2). As Comparative Example, evaluation of response of nematodes was carried out on the basis of a conventionally-known method for supplying nematodes. Used was a plate A3 which was identical to that used in Example 10 and in which two sets of two fall-in cavities were formed on left and right sides in symmetrical positions. A test solution was diluted solutions of diacetyl at two different concentrations as in Example 10. Note that the above dilution was conducted with use of a buffer solution, which served as a control. A nematode liquid containing nematodes having been washed in advance with wash buffer was dropped onto the center of the nematode assay plate, and a liquid component was wiped out with a paper wiper. Then, the nematodes were released on the plate. The plate was covered with a lid and sealed with a paraffin film. […] Thereafter, the number of nematodes caught in the fall-in cavities was counted.

The mark [5] stands for this setting: 10-fold diluted solution of diacetyl.
Setting [6] is: 10^5-fold diluted solution of diacetyl.

In the case of `O=c1[nH]c(=O)n([C@H]2C[C@H](O)[C@@H](CO)O2)cc1F` [FUdR, 5-Fluoro-2′-deoxyuridine], the “hatching of eggs laid on culture plate to which FUdR was added” value in the series with C. elegans [1] (FUdR solution 5 mg in 10 mL added to culture plate, adults from third day after hatching cultured another day) is reported as “the eggs did not hatch”. Besides, the “sterilization dose at which the hatching rate of the next generation becomes 0%” value in the series with C. elegans [1] (FUdR solution added to culture plate, adult hermaphrodite of C. elegans prior to laying eggs exposed for a day) is listed as “not less than 0.5 mg/mL”. Further, the “hatching of eggs laid in capsule by adult nematodes exposed to FUdR” value in the series on C. elegans [1] (approximately 10 adults on fourth day after hatching, exposed one day on plate, encapsulated, observed up to two days after production) is “did not hatch, and no larvae were observed”. For the same compound, the “hatching result with nematodes cultured for one day in culture solution containing FUdR” value in the series on C. elegans [1] (culture solution containing FUdR instead of culture plate, nematode-encapsulated capsule) is recorded as “a result similar to that obtained by culturing on the culture plate to which the FUdR solution was added could be obtained”. The “locomotion of adult nematodes escaped from capsule” value in the series on C. elegans [2] is given as “No remarkable abnormality in locomotion was observed”.

Take `CC(=O)C(C)=O` [diacetyl]: the “Chemotaxis index (C.I.)” value is given as “negative” in the series with C. elegans [3] (setting [5]), “positive” in the series with C. elegans [3] (setting [6]), “negative” in the series with C. elegans [4] (setting [5]) and “positive” with C. elegans [4] (setting [6]).

Source of the values: patent US20240410879A1, “NEMATODE-SEALED CAPSULE, METHOD FOR PRODUCING NEMATODE-SEALED CAPSULE, AND USE OF NEMATODE-SEALED CAPSULE” (NATIONAL INSTITUTES FOR QUANTUM SCIENCE AND TECHNOLOGY, priority 2021, published 2024).
